A short description of test [1]: Inhibitory concentration determined on an HIV infection model mediated by CXCR4.
Test [2] can be described thus: Effective concentration for 50% protection of HIV-induced cytopathogenicity in MT-4 cells on the MTT assay.
Assay in test [3]: as above
This is another data set of the same source.

Drawing on BindingDB's records for doi:10.1016/s0960-894x(01)00323-7 (Kyoto University, 2001), this text covers IC50 and EC50 for 19 compounds.

Molecules are shown by their SMILES.

For `NCCCC[C@@H]1NC(=O)[C@H](CCCNC(N)=O)NC(=O)[C@H](Cc2ccc(O)cc2)NC(=O)[C@@H](NC(=O)[C@@H](NC(=O)[C@H](CCCN=C(N)N)NC(=O)[C@@H](N)CCCN=C(N)N)c2ccc3ccccc3c2)CSSC[C@@H](C(=O)N[C@@H](CCCN=C(N)N)C(=O)O)NC(=O)[C@H](CCCNC(N)=O)NC(=O)[C@H](CCCN=C(N)N)NC(=O)[C@H](Cc2ccc(O)cc2)NC(=O)[C@@H]2CCCN2C(=O)[C@@H](CCCNC(N)=O)NC1=O` [Derivative of T140 peptide], the IC50 (commonly the concentration that inhibits the measured activity by half) in test [1] is 51 nM. For the same compound, the concentration for a half-maximal effect (EC50) (usually the concentration giving half of the maximal effect) in test [2] is 0.5 nM.
In test [3], `NCCCC[C@@H]1NC(=O)[C@H](CCCN=C(N)N)NC(=O)[C@H](Cc2ccc(O)cc2)NC(=O)[C@@H](NC(=O)[C@@H](NC(=O)[C@H](CCCN=C(N)N)NC(=O)[C@@H](N)CCCNC(N)=O)c2ccc3ccccc3c2)CSSC[C@@H](C(=O)N[C@@H](CCCN=C(N)N)C(=O)O)NC(=O)[C@H](CCCNC(N)=O)NC(=O)[C@H](CCCNC(N)=O)NC(=O)[C@H](Cc2ccc(O)cc2)NC(=O)[C@@H]2CCCN2C(=O)[C@@H](CCCCN)NC1=O` [Derivative of T140 peptide] yielded an EC50 of 68 nM.
Same read-out and setting: as for `NCCCC[C@@H]1NC(=O)[C@H](CCCN=C(N)N)NC(=O)[C@H](Cc2ccc(O)cc2)NC(=O)[C@@H](NC(=O)[C@@H](NC(=O)[C@H](CCCN=C(N)N)NC(=O)[C@@H](N)CCCN=C(N)N)c2ccc3ccccc3c2)CSSC[C@@H](C(=O)N[C@@H](CCCN=C(N)N)C(N)=O)NC(=O)[C@H](CCCNC(N)=O)NC(=O)[C@H](CCCNC(N)=O)NC(=O)[C@H](Cc2ccc(O)cc2)NC(=O)[C@@H]2CCCN2C(=O)[C@@H](CCCNC(N)=O)NC1=O` [Derivative of T140 peptide], the figure is 2.7 nM.
`NCCCC[C@@H]1NC(=O)[C@H](CCCNC(N)=O)NC(=O)[C@H](Cc2ccc(O)cc2)NC(=O)[C@@H](NC(=O)[C@@H](NC(=O)[C@H](CCCN=C(N)N)NC(=O)[C@@H](N)CCCN=C(N)N)c2ccc3ccccc3c2)CSSC[C@@H](C(=O)N[C@@H](CCCN=C(N)N)C(=O)O)NC(=O)[C@H](CCCNC(N)=O)NC(=O)[C@H](CCCN=C(N)N)NC(=O)[C@H](Cc2ccc(O)cc2)NC(=O)[C@@H]2CCCN2C(=O)[C@@H](CCCCN)NC1=O` [Derivative of T140 peptide]: the IC50 in test [1] amounted to 8 nM. This compound registered an EC50 in test [2] of 2.8 nM.
In turn, `NCCCC[C@@H]1NC(=O)[C@H](CCCNC(N)=O)NC(=O)[C@H](Cc2ccc(O)cc2)NC(=O)[C@@H](NC(=O)[C@@H](NC(=O)[C@H](CCCN=C(N)N)NC(=O)[C@@H](N)CCCN=C(N)N)c2ccc3ccccc3c2)CSSC[C@@H](C(=O)N[C@@H](CCCN=C(N)N)C(N)=O)NC(=O)[C@H](CCCNC(N)=O)NC(=O)[C@H](CCCNC(N)=O)NC(=O)[C@H](Cc2ccc(O)cc2)NC(=O)[C@@H]2CCCN2C(=O)[C@@H](CCCCN)NC1=O` [Derivative of T140 peptide] registered an EC50 in test [3] of 6.8 nM.
On the same count and under the same terms, then `NCCCC[C@@H]1NC(=O)[C@H](CCCN=C(N)N)NC(=O)[C@H](Cc2ccc(O)cc2)NC(=O)[C@@H](NC(=O)[C@@H](NC(=O)[C@H](CCCN=C(N)N)NC(=O)[C@@H](N)CCCNC(N)=O)c2ccc3ccccc3c2)CSSC[C@@H](C(=O)N[C@@H](CCCN=C(N)N)C(=O)O)NC(=O)[C@H](CCCNC(N)=O)NC(=O)[C@H](CCCN=C(N)N)NC(=O)[C@H](Cc2ccc(O)cc2)NC(=O)[C@@H]2CCCN2C(=O)[C@@H](CCCNC(N)=O)NC1=O` [Derivative of T140 peptide], with 36 nM; and `NCCCC[C@@H]1NC(=O)[C@H](CCCN=C(N)N)NC(=O)[C@H](Cc2ccc(O)cc2)NC(=O)[C@@H](NC(=O)[C@@H](NC(=O)[C@H](CCCN=C(N)N)NC(=O)[C@@H](N)CCCNC(N)=O)c2ccc3ccccc3c2)CSSC[C@@H](C(=O)N[C@@H](CCCN=C(N)N)C(N)=O)NC(=O)[C@H](CCCNC(N)=O)NC(=O)[C@H](CCCNC(N)=O)NC(=O)[C@H](Cc2ccc(O)cc2)NC(=O)[C@@H]2CCCN2C(=O)[C@@H](CCCCN)NC1=O` [Derivative of T140 peptide], with 40 nM.
Still for that read-out and setting: as for `NCCCC[C@@H]1NC(=O)[C@H](CCCN=C(N)N)NC(=O)[C@H](Cc2ccc(O)cc2)NC(=O)[C@@H](NC(=O)[C@@H](NC(=O)[C@H](CCCN=C(N)N)NC(=O)[C@@H](N)CCCN=C(N)N)c2ccc3ccccc3c2)CSSC[C@@H](C(=O)N[C@@H](CCCN=C(N)N)C(N)=O)NC(=O)[C@H](CCCNC(N)=O)NC(=O)[C@H](CCCN=C(N)N)NC(=O)[C@H](Cc2ccc(O)cc2)NC(=O)[C@@H]2CCCN2C(=O)[C@@H](CCCCN)NC1=O` [Derivative of T140 peptide], the figure is 72 nM; as for `NCCCC[C@@H]1NC(=O)[C@H](CCCN=C(N)N)NC(=O)[C@H](Cc2ccc(O)cc2)NC(=O)[C@@H](NC(=O)[C@@H](NC(=O)[C@H](CCCN=C(N)N)NC(=O)[C@@H](N)CCCNC(N)=O)c2ccc3ccccc3c2)CSSC[C@@H](C(=O)N[C@@H](CCCN=C(N)N)C(N)=O)NC(=O)[C@H](CCCNC(N)=O)NC(=O)[C@H](CCCN=C(N)N)NC(=O)[C@H](Cc2ccc(O)cc2)NC(=O)[C@@H]2CCCN2C(=O)[C@@H](CCCNC(N)=O)NC1=O` [Derivative of T140 peptide], 1.2 nM; as for `NCCCC[C@@H]1NC(=O)[C@H](CCCNC(N)=O)NC(=O)[C@H](Cc2ccc(O)cc2)NC(=O)[C@@H](NC(=O)[C@@H](NC(=O)[C@H](CCCN=C(N)N)NC(=O)[C@@H](N)CCCNC(N)=O)c2ccc3ccccc3c2)CSSC[C@@H](C(=O)N[C@@H](CCCN=C(N)N)C(=O)O)NC(=O)[C@H](CCCNC(N)=O)NC(=O)[C@H](CCCN=C(N)N)NC(=O)[C@H](Cc2ccc(O)cc2)NC(=O)[C@@H]2CCCN2C(=O)[C@@H](CCCCN)NC1=O` [Derivative of T140 peptide], 37 nM.
Compound `NCCCC[C@@H]1NC(=O)[C@H](CCCN=C(N)N)NC(=O)[C@H](Cc2ccc(O)cc2)NC(=O)[C@@H](NC(=O)[C@@H](NC(=O)[C@H](CCCN=C(N)N)NC(=O)[C@@H](N)CCCN=C(N)N)c2ccc3ccccc3c2)CSSC[C@@H](C(=O)N[C@@H](CCCN=C(N)N)C(=O)O)NC(=O)[C@H](CCCNC(N)=O)NC(=O)[C@H](CCCN=C(N)N)NC(=O)[C@H](Cc2ccc(O)cc2)NC(=O)[C@@H]2CCCN2C(=O)[C@@H](CCCCN)NC1=O` [Compound T140] yielded a half-maximal inhibitory concentration (IC50) in test [1] of 10 nM. In test [3], this compound came in with an EC50 of 3.3 nM.
Compound `NCCCC[C@@H]1NC(=O)[C@H](CCCNC(N)=O)NC(=O)[C@H](Cc2ccc(O)cc2)NC(=O)[C@@H](NC(=O)[C@H](Cc2ccc3ccccc3c2)NC(=O)[C@H](CCCN=C(N)N)NC(=O)[C@@H](N)CCCNC(N)=O)CSSC[C@@H](C(=O)N[C@@H](CCCN=C(N)N)C(N)=O)NC(=O)[C@H](CCCNC(N)=O)NC(=O)[C@H](CCCN=C(N)N)NC(=O)[C@H](Cc2ccc(O)cc2)NC(=O)[C@@H]2CCCN2C(=O)[C@@H](CCCCN)NC1=O` [Derivative of T140 peptide] returned an EC50 in test [3] of 6.6 nM.
In test [3], `NCCCC[C@@H]1NC(=O)[C@H](CCCNC(N)=O)NC(=O)[C@H](Cc2ccc(O)cc2)NC(=O)[C@@H](NC(=O)[C@@H](NC(=O)[C@H](CCCN=C(N)N)NC(=O)[C@@H](N)CCCN=C(N)N)c2ccc3ccccc3c2)CSSC[C@@H](C(=O)N[C@@H](CCCN=C(N)N)C(=O)O)NC(=O)[C@H](CCCNC(N)=O)NC(=O)[C@H](CCCNC(N)=O)NC(=O)[C@H](Cc2ccc(O)cc2)NC(=O)[C@@H]2CCCN2C(=O)[C@@H](CCCCN)NC1=O` [Derivative of T140 peptide] came in with an EC50 of 8.9 nM.
As to `NCCCC[C@@H]1NC(=O)[C@H](CCCN=C(N)N)NC(=O)[C@H](Cc2ccc(O)cc2)NC(=O)[C@@H](NC(=O)[C@@H](NC(=O)[C@H](CCCN=C(N)N)NC(=O)[C@@H](N)CCCN=C(N)N)c2ccc3ccccc3c2)CSSC[C@@H](C(=O)N[C@@H](CCCN=C(N)N)C(=O)O)NC(=O)[C@H](CCCNC(N)=O)NC(=O)[C@H](CCCN=C(N)N)NC(=O)[C@H](Cc2ccc(O)cc2)NC(=O)[C@@H]2CCCN2C(=O)[C@@H](CCCNC(N)=O)NC1=O` [T140], the IC50 in test [1] came to 23 nM. Also, in test [2], the EC50 came to 4 nM.
Regarding `NCCCC[C@@H]1NC(=O)[C@H](CCCN=C(N)N)NC(=O)[C@H](Cc2ccc(O)cc2)NC(=O)[C@@H](NC(=O)[C@@H](NC(=O)[C@H](CCCN=C(N)N)NC(=O)[C@@H](N)CCCN=C(N)N)c2ccc3ccccc3c2)CSSC[C@@H](C(=O)N[C@@H](CCCN=C(N)N)C(=O)O)NC(=O)[C@H](CCCNC(N)=O)NC(=O)[C@H](CCCNC(N)=O)NC(=O)[C@H](Cc2ccc(O)cc2)NC(=O)[C@@H]2CCCN2C(=O)[C@@H](CCCNC(N)=O)NC1=O` [Derivative of T140 peptide], it took 7.8 nM to reach a half-maximal effect in test [3] (EC50).
As for `NCCCC[C@@H]1NC(=O)[C@H](CCCNC(N)=O)NC(=O)[C@H](Cc2ccc(O)cc2)NC(=O)[C@@H](NC(=O)[C@@H](NC(=O)[C@H](CCCN=C(N)N)NC(=O)[C@@H](N)CCCN=C(N)N)c2ccc3ccccc3c2)CSSC[C@@H](C(=O)N[C@@H](CCCN=C(N)N)C(N)=O)NC(=O)[C@H](CCCNC(N)=O)NC(=O)[C@H](CCCN=C(N)N)NC(=O)[C@H](Cc2ccc(O)cc2)NC(=O)[C@@H]2CCCN2C(=O)[C@@H](CCCCN)NC1=O` [Derivative of T140 peptide], in test [1], the IC50 amounted to 12 nM. In test [2], it took 0.6 nM to reach a half-maximal effect (EC50).
`NCCCC[C@@H]1NC(=O)[C@H](CCCNC(N)=O)NC(=O)[C@H](Cc2ccc(O)cc2)NC(=O)[C@@H](NC(=O)[C@@H](NC(=O)[C@H](CCCN=C(N)N)NC(=O)[C@@H](N)CCCN=C(N)N)c2ccc3ccccc3c2)CSSC[C@@H](C(=O)N[C@@H](CCCN=C(N)N)C(N)=O)NC(=O)[C@H](CCCNC(N)=O)NC(=O)[C@H](CCCN=C(N)N)NC(=O)[C@H](Cc2ccc(O)cc2)NC(=O)[C@@H]2CCCN2C(=O)[C@@H](CCCNC(N)=O)NC1=O` [Derivative of T140 peptide] had an IC50 in test [1] of 19 nM. The EC50 in test [2] was found to be 0.4 nM.
`NCCCC[C@@H]1NC(=O)[C@H](CCCN=C(N)N)NC(=O)[C@H](Cc2ccc(O)cc2)NC(=O)[C@@H](NC(=O)[C@@H](NC(=O)[C@H](CCCN=C(N)N)NC(=O)[C@@H](N)CCCN=C(N)N)c2ccc3ccccc3c2)CSSC[C@@H](C(=O)N[C@@H](CCCN=C(N)N)C(N)=O)NC(=O)[C@H](CCCNC(N)=O)NC(=O)[C@H](CCCN=C(N)N)NC(=O)[C@H](Cc2ccc(O)cc2)NC(=O)[C@@H]2CCCN2C(=O)[C@@H](CCCNC(N)=O)NC1=O` [Derivative of T140 peptide] had an IC50 in test [1] of 24 nM. The EC50 in test [2] was determined as 4.6 nM.
Consider `Nc1ccn([C@H]2CC[C@@H](CO)O2)c(=O)n1` [Dideoxycytidine], for which the 50% effective concentration (EC50) in test [3] stood at 88 nM.
